One series relates to C2C12 myoblasts. As to the kind of experiment: GLUT4 translocation to the plasma membrane (flow cytometry). Format: cell-based. From the text: Rather, it promoted the translocation of GLUT4 to the plasma membrane of C2C12 myoblasts that express both Gprc6a and Glut4. A similar increase in the accumulation of GLUT4 was observed after exercise in WT but not in Gprc6aMck−/− mice (FIG. 26I). Signaling through GPCRs can favor PI3K activation, leading to Akt phosphorylation, an event that favors the translocation of GLUT4 to the plasma membrane (Lopez-Ilasaca et al., 1997, Science 275:394-397). In agreement with this notion, Akt phosphorylation in muscles of Gprc6Mck−/− mice was decreased compared to muscles of control mice after exercise. […]
Glucose and insulin tolerance tests were performed as previously described (Lee et al., 2007, Cell 130:456-469). For in vivo glucose uptake, a bolus of 2-deoxy-d-[^3H]glucose (^3H-2-DG, Perkin Elmer) (10 μCi) was administered before an endurance run. ^3H-2-DG and ^3H-2-DG-6-P content in muscle was determined by liquid scintillation counter and normalized to muscle weight. […] GLUT4 translocation was determined by flow cytometry using an antibody against the extracellular domain of the GLUT4 protein (Santa Cruz, Sc-1606). […] To analyze mitochondrial function, myofibers were treated with three compounds in succession (oligomycin 10 μg/ml, FCCP 200 μM, rotenone 0.2 μM) and OCR was recorded following administration of each of them.

Another series concerns wild-type mice. In words: Allergen-triggered asthma-like condition, osteocalcin delivery. The series is classed as in vivo, mouse. As for the experimental part: The level of acetylcholine, a neurotransmitter that causes bronchoconstriction, is increased in the lungs but not in the brains of Osteocalcin^−/− and Gprc6a^−/− mice.
When metacholine is administered to the lungs of mice, the lung airways constrict. […] Wild-type mice were treated with an inflammation-increasing agent and developed asthma that included bronchoconstriction and signs of inflammation.

The next series has as its system mice. In words: Mouse asthma model (albumin sensitisation, nebulized albumin). The series is classed as in vivo. Particulars: osteocalcin given by nebulization together with the nebulized albumin. From the text: In a mouse asthma model that involves intraperitoneal injection of albumin (to sensitize the mice) followed a week later by nebulized administration of albumin to the lungs of the mice, osteocalcin given by nebulization together with the nebulized albumin prevented the bronchoconstriction that would have otherwise been observed.

The test system of a further series is wild type mice. As to the kind of experiment: Glycemia during subcutaneous infusion. Conditions: 0.3, 1 and 3 ng/hour subcutaneously for 28 days, versus PBS. Format: in vivo, mouse. The protocol:
FIG. 1. Osteocalcin subcutaneous infusion decreases glycemia in wild-type mice. Indicated doses of recombinant osteocalcin or PBS were infused subcutaneously for 28 days in wild-type mice. Blood glucose was measured at indicated days.
An in vivo experiment was conducted in which the effect of undercarboxylated osteocalcin on glycemia was monitored. Wild type mice were infused with 3 different amounts of mouse recombinant undercarboxylated osteocalcin or placebo (PBS) subcutaneously for 28 days (0.3, 1 and 3 ng/hour). Compared to the control animal infused with placebo, all three doses of undercarboxylated osteocalcin decreased glycemia in vivo over the 28 day period (FIG. 1).

A short description of series [1]: Osteocalcin in blood of ICV-infused Osteocalcin−/− mice. The series is classed as in vivo, mouse. Particulars: ICV infusion 10 ng/hour. The protocol: For osteocalcin delivery to pregnant mice, IP injections (240 ng/day) were performed as soon as a plug was present daily until delivery (E0.5-E18.5). For osteocalcin or leptin infusion in adult Osteocalcin^−/− or ob/ob mice, pumps (Alzet micro-osmotic pump, Model 1002) delivering osteocalcin (300 ng/hr), leptin (50 ng/hr), or vehicle were surgically installed subcutaneously in the backs of 3-month old mice. For the postnatal rescue of cognitive functions in Osteocalcin^−/− mice, osteocalcin (10 ng/hour) or vehicle were delivered intrasubventricularly (icv) as previously described (Ducy et al., 2000, Cell 100:197-207). Leptin and osteocalcin content in sera and tissues were determined by ELISA.
The pharmacological relevance of this ability of osteocalcin to signal in neurons was established by delivering uncarboxylated osteocalcin through intracerebro-ventricular (ICV) infusions (10 ng/hour) in WT and Osteocalcin^−/− mice. The localization of the cannula was verified by administering methylene blue through these pumps. […] This week-long treatment with uncarboxylated osteocalcin corrected the anxiety and depression features noted in Osteocalcin^−/− mice (FIG. 12A-E). Collectively, the results described herein indicate that osteocalcin alleviates anxiety and depression in the mouse by acting directly in the brain.

A further series concerns Leydig cells. As to the kind of experiment: Testosterone production by testis explants or primary Leydig cells. Conditions: recombinant uncarboxylated osteocalcin 0-100 ng/ml of culture medium (FIG. 10). The series is classed as cell-based, mouse. As for the experimental part: FIG. 10. Osteocalcin favors male fertility by increasing testosterone production by Leydig cells. (A-B) Testosterone production by testis explants (A) or primary Leydig cells (B) cultured in the presence of supernatants of wild type (WT) or Osteocalcin^−/− osteoblast cultures. (C-D) Testosterone production by testis explants (C) or primary Leydig cells (D) following stimulation with increasing doses of recombinant uncarboxylated osteocalcin (0, 0.3, 1, 3, 10, 100 ng/ml of culture medium). (E) Circulating testosterone levels in WT mice 1 hour, 4 hours, and 8 hours after vehicle or recombinant uncarboxylated osteocalcin (3 ng/g of body weight) injection. (F-G) Comparison between the average litter size (F) and frequency (G) generated by WT, Osteocalcin^−/−, or Esp^−/− male littermate mice crossed with WT females (breeding was tested from 6 to 16 weeks of age). (H-L) Testis size (H), testis weight (I), epididymides weight (J), seminal vesicles weight (K), and sperm count (L) in Osteocalcin^−/− and Esp^−/− compared to WT littermate mice. (M) Circulating steroid sex hormone levels in Osteocalcin^−/− and Esp^−/− compared to WT littermate mice. The analyses were performed on breeder and non-breeder mice. Error bars represent SEM. Student's t test (*) P<0.05, (**) P<0.001.

Where [2] appears, read: delivery by nebulization (two weeks).

“Also recorded” adds a separate entry of the source.

With “uncarboxylated osteocalcin: Recombinant uncarboxylated mouse osteocalcin, bacterially produced, purified on glutathione beads and cleaved from the GST subunit by thrombin (YLGASVPSPDPLEPTREQCELNPACDELSDQYGLKTAYKRIYGITI)”, the “translocation of GLUT4 to the plasma membrane” value in the series on C2C12 myoblasts was “promoted”. The bronchoconstriction result with wild-type mice (setting [2]) is “completely rescued”; in the series on wild-type mice (osteocalcin delivered to the brains), “did not show a similar effect”; in the series with mice, “prevented”. Further, in the series with wild-type mice (setting [2]), the “local inflammation / inflammatory signs” value was “without affecting; also recorded: still observed”. Further, the glycemia result in the series on wild type mice was “decreases”; with wild type mice (listed as undercarboxylated osteocalcin), “decreased”. For the same substance, the “leakage of the centrally delivered hormone into the general circulation” value in series [1] is “no leakage”. Further, the “testosterone production by Leydig cells” value with Leydig cells is on record as “increasing”.
